14 molecules from US20230416233A1, “(AZA)QUINOLINE 4-AMINES DERIVATIVES AS P2X3 INHIBITORS” (CHIESI FARMACEUTICI S.P.A., priority 2020, published 2023) can be followed below.

Like-named read-outs stand apart in the source and are kept apart here.

One assay deals with T1, h P2X3 (Homo sapiens, UniProt P56373).
T1 sequence (P56373 1-397): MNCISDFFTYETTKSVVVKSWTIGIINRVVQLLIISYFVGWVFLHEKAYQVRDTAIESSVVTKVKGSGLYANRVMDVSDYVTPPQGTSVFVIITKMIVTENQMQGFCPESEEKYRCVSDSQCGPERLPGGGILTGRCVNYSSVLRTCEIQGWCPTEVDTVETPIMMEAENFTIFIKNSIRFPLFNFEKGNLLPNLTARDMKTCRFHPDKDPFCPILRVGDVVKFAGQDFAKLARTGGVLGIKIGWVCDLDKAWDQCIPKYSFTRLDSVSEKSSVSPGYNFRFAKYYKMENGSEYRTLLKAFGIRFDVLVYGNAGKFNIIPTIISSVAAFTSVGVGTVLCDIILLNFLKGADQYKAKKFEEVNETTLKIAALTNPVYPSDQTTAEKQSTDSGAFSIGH
The experiment in a line: In vitro electrophysiology assay for P2X3 (Sophion Qube automated whole-cell patch clamp). The class given is cell-based. The conditions noted are these: for h P2X3 (pIC50 range of activity): Table 3. The method, then:
In Vitro Electrophysiology Assay for P2X3
(§1) Cells expressing P2X3 receptors were grown according to standard practice and maintained at 37° C. in a 5% humidified CO2 atmosphere. The cells were seeded into T175 flask 2 days prior to the day of the assay and dissociated from the flasks using TrypLE when grown to confluence of 80-90%. The dissociated cells were resuspended in serum free media at a cell density of 3×10^6 cells/ml and loaded onto the Sophion Qube automated patch-clamp system. The extracellular assay buffer contained 145 mM NaCl, 4 mM KCl, 2 mM CaCl2, 1 mM MgCl2, 10 mM HEPES, and 10 mM glucose at pH 7.4. The intracellular assay solution contained 140 mM CsF, 10 mM NaCl, 10 mM EGTA, 10 mM HEPES at pH 7.2. Agonist stock solutions were prepared in H2O and diluted in bath solution prior to use. All antagonists were prepared as 10 mM stock solutions in DMSO and diluted in bath solution prior to use. All experiments were performed under the whole-cell patch clamp configuration at room temperature with 384 individual cells being voltage clamped at −60 mV simultaneously on the Sophion Qube instrument. Two baseline responses were established with the application of α,β-MeATP (800 nM), with the subsequent agonist applications being washed out using extracellular assay buffer containing 0.5 U/ml apyrase. Following the second agonist application, antagonist was incubated in the absence of α,β-MeATP for 10 minutes. After antagonist preincubation, 800 nM α,β-MeATP and antagonist were co-administered to determine the inhibitory effect of the antagonist. One concentration of an antagonist was assessed against a single cell, with different concentrations of the antagonist applied to other cells on the 384 recording substrate. The control P2X3 current amplitude was taken from the peak current amplitude from the second agonist response prior to preincubation with antagonist. The peak P2X3 current amplitude in the presence of antagonist was used to calculate the inhibitory effect at each concentration of the antagonist according to the following equation:
Percentage inhibition of P2X3=(P2X3 control peak amplitude−P2X3 antagonist peak amplitude)/P2X3 control peak amplitude)*100
Concentration-response curves were constructed from ten different concentrations with each concentration of antagonist tested on at least two individual cells. The concentration of the antagonist to inhibit P2X3 current by 50% (IC50) was determined by fitting the data with the following equation:
Y=a+[(b−a)/(1+10^((log c−x)d)]
Where ‘a’ is minimum response, ‘b’ is maximum response, ‘c’ is IC50 and ‘d’ is Hill slope.
The results for individual compounds are provided below in Table 2 and are expressed as range of activity.
On the technique in general: The patch-clamp technique gives a direct electrical read-out from membranes.

The target of another assay is T2, h P2X2/3 (Homo sapiens, UniProt P56373+Q9UBL9).
T2 construct: host or cells: cells not described; same protocol as the P2X3 assay
T2 sequence (P56373 1-397): T1 sequence (P56373 1-397)
T2 sequence (Q9UBL9 1-471): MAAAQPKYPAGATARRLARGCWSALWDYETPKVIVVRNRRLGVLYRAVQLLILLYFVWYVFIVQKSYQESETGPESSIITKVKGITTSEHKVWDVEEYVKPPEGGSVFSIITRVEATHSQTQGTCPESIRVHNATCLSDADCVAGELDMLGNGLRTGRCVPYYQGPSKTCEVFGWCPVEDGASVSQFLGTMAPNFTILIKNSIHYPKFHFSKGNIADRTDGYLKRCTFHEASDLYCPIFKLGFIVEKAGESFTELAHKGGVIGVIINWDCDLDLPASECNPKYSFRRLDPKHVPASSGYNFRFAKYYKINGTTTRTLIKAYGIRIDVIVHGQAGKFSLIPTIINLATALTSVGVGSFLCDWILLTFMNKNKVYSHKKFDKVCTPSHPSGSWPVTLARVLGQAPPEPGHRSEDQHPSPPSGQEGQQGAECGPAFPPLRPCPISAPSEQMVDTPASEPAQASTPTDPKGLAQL
As to the kind of experiment: In vitro electrophysiology assay for P2X2/3 (same protocol as the P2X3 assay, 10 μM ATP as agonist). The class given is cell-based. The note with it: Table 3; agonist 10 μM ATP, mean current amplitude seven seconds after agonist; read-out: h P2X2/3 (pIC50 range of activity) (converted). As to the method:
as §1, with “The peak P2X3 current amplitude in the presence of antagonist was used to calculate the inhibitory effect at each concentration of the antagonist according to the following equation:” left out
The same assay protocol was used for the P2X2/3 assay as the P2X3 assay with two modifications: 1) 10 μM ATP was used as the agonist; and 2) the mean current amplitude was measured seven seconds after the application of agonist.

The mark [1] stands for this setting: Table 2, agonist 800 nM α,β-MeATP, 10 min antagonist preincubation, peak current, read-out: h P2X3 (pIC50 range of activity) (converted).
[2] abbreviates: agonist 800 nM α,β-MeATP, peak current.

`Cc1ccc(-c2ccc3nccc(NCc4ccc(C)nn4)c3c2)nc1` [Example 10, N-((6-methylpyridazin-3-yl)methyl)-6-(5-methylpyridin-2-yl)quinolin-4-amine]: on h P2X3 (setting [1]), the IC50 is less than 316 nM.

Regarding `COc1cc(-c2ncc(C)cn2)cc2c(N[C@H](C)c3ccc(C)nn3)cnnc12` [Example 8, (R)-8-methoxy-N-(1-(6-methylpyridazin-3-yl)ethyl)-6-(5-methylpyrimidin-2-yl)cinnolin-4-amine], the results for the IC50 on h P2X3 (setting [1]) and on h P2X2/3 were less than 316 nM and 3160 to 31600 nM, respectively. At h P2X3 (setting [2]), the “h P2X3 (pIC50 range of activity)” value is “+++ (+++: pIC50 h P2X3 or h P2X2/3 > 6.5)”.

Take `C[C@@H](Nc1ccnc2ccc(-c3ccc(F)cc3)cc12)c1cnc(C(F)(F)F)nc1` [Example 12, (R)-6-(4-fluorophenyl)-N-(1-(2-(trifluoromethyl)pyrimidin-5-yl)ethyl)quinolin-4-amine]: on h P2X3 (setting [1]), the IC50 is 316 to 3160 nM.

As for `Cc1ccc(CNc2nccc3ccc(-c4ccc(F)cc4)cc23)nn1` [comparative Example A, reference compound], on h P2X3 (in vitro assay as described for P2X3, read-out: activity on receptor P2X3 expressed as pIC50 (converted)), the IC50 is greater than 3160 nM.

As to `COc1cc(-c2ccc(F)cc2)cc2c(N[C@H](C)c3ccc(C)nn3)cnnc12` [Example 6, (R)-6-(4-fluorophenyl)-8-methoxy-N-(1-(6-methylpyridazin-3-yl)ethyl)cinnolin-4-amine], at h P2X3 (setting [1]), the IC50 was less than 316 nM.

For the molecule `Cc1ccc(CNc2cnnc3ccc(-c4ccc(F)cc4)cc23)nn1` [Example 1, 6-(4-Fluorophenyl)-N-((6-methylpyridazin-3-yl)methyl)cinnolin-4-amine], at h P2X3 (setting [1]), the IC50 is less than 316 nM.

In the case of `Cc1ccc(-c2ccc3nccc(N[C@H](C)c4cnc(C(F)(F)F)nc4)c3c2)nc1` [Example 9, (R)-6-(5-methylpyridin-2-yl)-N-(1-(2-(trifluoromethyl)pyrimidin-5-yl)ethyl) quinolin-4-amine], on h P2X3 (setting [1]), the IC50 is less than 316 nM.

Regarding `Cc1ccc(-c2ccc3nncc(NCc4ccc(C)nn4)c3c2)nc1` [Example 5, N-((6-methylpyridazin-3-yl)methyl)-6-(5-methylpyridin-2-yl)cinnolin-4-amine], the IC50 at h P2X3 (setting [1]) is less than 316 nM.

`C[C@@H](Nc1cnnc2ccc(-c3ccc(F)cc3)cc12)c1cnc(C(F)(F)F)nc1` [Example 2, 6-(4-Fluorophenyl)-N-((1R)-1-(2-(trifluoromethyl)pyrimidin-5-yl)ethyl)cinnolin-4-amine]: the results for the IC50 on h P2X3 (setting [1]) and on h P2X2/3 were less than 316 nM and 316 to 3160 nM, respectively. In addition, the “h P2X3 (pIC50 range of activity)” value on h P2X3 (setting [2]) was “+++ (+++: pIC50 h P2X3 or h P2X2/3 > 6.5)”.

As to `Cc1ccc(-c2ccc3nncc(N[C@H](C)c4cnc(C(F)(F)F)nc4)c3c2)nc1` [Example 4, 6-(5-Methylpyridin-2-yl)-N-((1R)-1-(2-(trifluoromethyl)pyrimidin-5-yl)ethyl)cinnolin-4-amine], the IC50 was less than 316 nM at h P2X3 (setting [1]) and 316 to 3160 nM at h P2X2/3. In addition, on h P2X3 (setting [2]), the “h P2X3 (pIC50 range of activity)” value is listed as “+++ (+++: pIC50 h P2X3 or h P2X2/3 > 6.5)”.

Take `Cc1cnc(-c2ccc3nncc(N[C@H](C)c4cnc(C(F)(F)F)nc4)c3c2)s1` [Example 3, 6-(5-Methylthiazol-2-yl)-N-((1R)-1-(2-(trifluoromethyl)pyrimidin-5-yl)ethyl)cinnolin-4-amine]: the IC50 at h P2X3 (setting [1]) was less than 316 nM.

Take `COc1cc(-c2ccc(F)cc2)cc2c(N[C@H](C)c3cnc(C(F)(F)F)nc3)cnnc12` [Example 7, (R)-6-(4-fluorophenyl)-8-methoxy-N-(1-(2-(trifluoromethyl)pyrimidin-5-yl)ethyl)cinnolin-4-amine]: the IC50 on h P2X3 (setting [1]) was less than 316 nM.

`Cc1ccc(CNc2ccnc3ccc(-c4ccc(F)cc4)cc23)nn1` [Example 11, 6-(4-Fluorophenyl)-N-((6-methylpyridazin-3-yl)methyl)quinolin-4-amine]: the IC50 on h P2X3 (setting [1]) is less than 316 nM.

`Cc1ccc([C@@H](C)Nc2cnnc3ccc(-c4ccc(F)cc4)cc23)nn1` [Example 13, 6-(4-Fluorophenyl)-N-[(1R)-1-(6-methylpyridazin-3-yl)ethyl]cinnolin-4-amine]: the IC50 at h P2X3 (setting [1]) is less than 316 nM.
